The numbers were not newly measured in patent US20190156929A1, “METHODS OF IMPROVING PATIENT COMPLIANCE TO TREAT CONTRAST-INDUCED INJURY” (Saghmos Therapeutics, Inc., priority 2017, published 2019), which cites them from elsewhere.

The test system of this data set is contrast-induced nephropathy in patients undergoing coronary angiography/angioplasty. The following applies: four published Phase 2 trials; compared with isotonic saline; patients e.g. with high serum creatinine levels.

On to `COc1ccc(CN2CCNCC2)c(OC)c1OC` [Trimetazidine], for which the “reduction of the risk of contrast-induced nephropathy (CIN)” value is listed as “more effective than isotonic saline in reducing the risk of contrast-induced nephropathy (CIN)”.
